Data set [1] can be described thus: Cytotoxicity assay (MTS), HepG2. The data set is classed as cell-based. Particulars: human, HepG2 cells. On the procedure:
(§1) 50 μl of 2× drug dilutions were added per well in a 96 well plate. Final concentrations of drug ranged from 1 to 100 μM. A “no drug” (media only) control was used to determine the minimum absorbance values and a “cells+media only” control was used for maximum absorbance value. A solvent control was also used. Cells were then added (PBM: 5×10^4 cells/well; CEM: 2.5×10^3 cells/well; Vero, HepG2, Huh-7, and Clone A: 5×10^3 cells/well) and incubated at 37° C. in a humidified 5% CO2 atmosphere for 3-5 days (PBM: 5 days; CEM: 3 days, all others: 4 days). After incubation, 20 μl of MTS dye was added from Cell Titer Aqueous One Solution Cell Proliferation Assay to each well and the plate was re-incubated for 2-4 hours. The absorbance (490 nm) was then read on an ELISA plate reader using the media only/no cell wells as blanks. Percent inhibition was found and used to calculate the CC50.

The test system of a further data set is HepG2 cells. Nature of the data set: Mitochondria toxicity assay. In kind it is cell-based. The note with it: 7 days. On the procedure:
Fifty microliters of 2× drug dilutions were added per well in a 96 well plate. […] Ribosomal DNA levels were used to determine specific toxicity to mitochondria or generally cytotoxicity. HepG2 cells (5,000 cells/well at 50 μl) were added to the plate. The plate was incubated at 37° C. in a humidified 5% CO2 atmosphere for 7 days. After incubation, the supernatant was removed and stored for lactic acid quantification, and total DNA was extracted from cells as described in the RNeasy 96 handbook (February 1999), pages 22-23. No DNA digestions were performed, therefore total RNA and DNA were extracted. The extracted DNA was amplified and the change in mitochondrial DNA and ribosomal DNA for each sample was determined. The fold difference in mitochondrial DNA normalized for ribosomal DNA relative to control was calculated. Lactic acid quantification was performed by the D-Lactic Acid/L-Lactic acid test kit (Boehringer Mannheim/R-Biopharm/Roche). The total amount of lactic acid produced for each sample was found as well as the fold change in lactic acid production (% of lactic acid/% of rDNA) as described in the manufacturers instructions.

The nature of data set [2]: Cytotoxicity assay (MTS), PBM. The note with it: PBM cells. The data set is classed as cell-based. As to the method: as §1
Data set [3] can be described thus: Cytotoxicity assay (MTS), Huh7. The data set is classed as cell-based. Particulars: human, Huh7 cells. On the procedure:
as §1

A further data set has as its system Yellow Fever virus. The data set is classed as cell-based.
In a further data set the test system is VEE. Nature of the data set: organism not typed. The data set is classed as cell-based. The note with it: Vero.
A further data set relates to Coronavirus 229E. Nature of the data set: Antiviral activity, Coronavirus 229E. The data set is classed as cell-based.
For data set [4], the system named is Human bone marrow cells, CFU-GM. Nature of the data set: Bone marrow toxicity assay, CFU-GM. The data set is classed as cell-based. The note with it: CFU-GM. As to the method: The culture assays for CFU-GM and BFU-E are performed using a bilayer soft agar or methylcellulose method. Drugs are diluted in tissue culture medium and filtered. After 14 to 18 days at 37° C. in a humidified atmosphere of 5% CO2 in air, colonies of greater than 50 cells are counted using an inverted microscope. The results are presented as the percent inhibition of colony formation in the presence of drug compared to solvent control cultures.

The subject of a further data set is replicon HCV RNA. Nature of the data set: HCV replicon assay (clone not specified).
Data set [5] in a line: Cytotoxicity (CPE, Neutral Red) in MDCK cells of the antiviral tests. The note with it: dog, MDCK cells.
The next data set has as its system MDCK cells. Described as above. Particulars: MDCK, Influenza B test.
A short description of data set [6]: Cytotoxicity assay (MTS), MRC-5. In kind it is cell-based. The note with it: human, MRC-5 cells; MRC-5, MTS assay.

Like-named read-outs stand apart in the source and are kept apart here. A value given as a limit tells only on which side of the number the result lay.

Regarding `C[C@@]1(F)[C@H](O)[C@@H](CO)O[C@H]1n1ccc(N)nc1=O`, the cytotoxic concentration (CC50) with Vero cells (African green monkey) is greater than 100 µM; with Vero cells (read-out: CC50, CPE, Vero, SARSCoV test), greater than 100 µM; with Vero cells (read-out: CC50, NR, Vero, SARSCoV test, Neutral Red), greater than 100 µM; in the data set on Vero cells (read-out: CC50, NR, Vero, VEE test, Neutral Red), greater than 100 µM; in data set [5], greater than 100 µM; in the data set with MDCK cells (read-out: CC50, CPE) it was greater than 100 µM. Also, the CC50 in the data set with MDCK cells (read-out: CC50, NR, Neutral Red) is greater than 100 µM. In addition, the 50% cytotoxic concentration (CC50) at 4 days in data set [1] is 75 µM; in [3], greater than 100 µM; in [6], greater than 100 µM. Also, the “Lactic Acid Increase” value in the data set on HepG2 cells is “No effect ≥ 33 μM”. The half-maximal inhibitory concentration (IC50) with HepG2 cells (Homo sapiens, 168 h, read-out: mtDNA Synthesis (IC50)) was greater than 25 µM; in [4], 93.9 µM. Also, the cytotoxic concentration (CC50) at 5 days in data set [2] was greater than 100 µM. In addition, the “activity against Yellow Fever virus (in words)” value in the data set with Yellow Fever virus is “shows activity”. Also, the EC50 in the data set with VEE (read-out: EC50, CPE) is greater than 100 µM; with VEE (read-out: EC50, NR), greater than 100 µM. Also, the “activity on Corona virus (in words)” value with Coronavirus 229E was “lack of activity”. For the same compound, the EC90 is greater than 100 µM in the data set with Coronavirus 229E (Human coronavirus 229E); roughly 2.5 µM in the data set on replicon HCV RNA (Hepatitis C virus, 96 h, read-out: EC90 (1-log reduction of replicon RNA), 4-days incubation / 96 hours, FIG. 1A (converted)); 1.6 to 4.6 µM in the data set on replicon HCV RNA (Hepatitis C virus, read-out: EC90 values, range for the replicon clones, range over replicon clones of Table 1); 5 µM in the data set with replicon HCV RNA (read-out: EC90 (1-log reduction of replicon RNA) (converted), 4-days incubation / 96 hours, FIG. 1A).
